Laboratory results from PubChem BioAssay (NCI).
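Values below derive from 48-hour exposures of cells grown in 96-well plates, with endpoints linearly interpolated between the two concentrations bracketing the appropriate inhibition level. GI50 marks 50% less growth. Definition used: TGI = concentration required for complete inhibition of growth.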

Key:
Experiment in all cases: inhibition of tumour cell growth, NCI panel, 48 h; in the data active = GI50 below about 0.43 µM; inactive = the rest
A549 NSCLC = system: A549 NSCLC
CAKI-1 renal = system: CAKI-1 renal
CCRF-CEM leukemia = system: CCRF-CEM leukemia
HS 578T breast = system: HS 578T breast
HT29 colon = system: HT29 colon
SF-268 CNS = system: SF-268 CNS
SK-MEL-28 melanoma = system: SK-MEL-28 melanoma
UACC-62 melanoma = system: UACC-62 melanoma

CN[C@@H](C)C(=O)N[C@H](C(=O)N1CCC[C@H]1C(=O)Nc1sc(-c2ncco2)nc1-c1ccccc1)C1CCCCC1
68.6 µM: TGI (HT29 colon)
inactive: GI50 (A549 NSCLC) 80.5 µM | GI50 (CAKI-1 renal) 51.8 µM | GI50 (CCRF-CEM leukemia) 32.5 µM | GI50 (HS 578T breast) 50 µM | GI50 (HT29 colon) 28.6 µM | GI50 (SF-268 CNS) 99.7 µM | GI50 (SK-MEL-28 melanoma) 16.3 µM | GI50 (UACC-62 melanoma) 18.6 µM
39.2 µM: TGI (UACC-62 melanoma)
33.9 µM: TGI (SK-MEL-28 melanoma)
> 100 µM: TGI (A549 NSCLC) | TGI (CAKI-1 renal) | TGI (CCRF-CEM leukemia) | TGI (HS 578T breast) | TGI (SF-268 CNS)

O=S(=O)(Nc1cc(Sc2cccc3cccnc23)c(O)c2ccccc12)c1ccc(F)cc1
6.59 µM: TGI (HT29 colon)
4.16 µM: TGI (SK-MEL-28 melanoma)
11.9 µM: TGI (CCRF-CEM leukemia) | TGI (SF-268 CNS)
inactive: GI50 (A549 NSCLC) 0.538 µM | GI50 (CAKI-1 renal) 2.79 µM | GI50 (CCRF-CEM leukemia) 0.544 µM | GI50 (HS 578T breast) 4.44 µM | GI50 (HT29 colon) 1.84 µM | GI50 (SF-268 CNS) 1.89 µM | GI50 (SK-MEL-28 melanoma) 1.56 µM | GI50 (UACC-62 melanoma) 1.85 µM
3.17 µM: TGI (A549 NSCLC)
4.39 µM: TGI (UACC-62 melanoma)
45.7 µM: TGI (HS 578T breast)

Cc1ccc(/C=N\NC(=O)c2[nH]c3ccc(F)cc3c2-c2ccccc2)cc1
12.5 µM: TGI (CAKI-1 renal)
inactive: GI50 (SK-MEL-28 melanoma) 1.15 µM
> 100 µM: TGI (A549 NSCLC) | TGI (CCRF-CEM leukemia) | TGI (SK-MEL-28 melanoma)
> 58.6 µM: TGI (UACC-62 melanoma)
active: GI50 (A549 NSCLC) 0.0344 µM | GI50 (CAKI-1 renal) 0.0344 µM | GI50 (CCRF-CEM leukemia) 0.0275 µM | GI50 (HS 578T breast) 0.0375 µM | GI50 (HT29 colon) 0.0291 µM | GI50 (SF-268 CNS) 0.23 µM | GI50 (UACC-62 melanoma) 0.0516 µM
42.5 µM: TGI (SF-268 CNS)
11.6 µM: TGI (HT29 colon)

COc1cccc(OC(=O)c2ccc(C(F)(F)F)nc2Nc2cc(Cl)ccc2C)c1
36.1 µM: TGI (CAKI-1 renal)
5.13 µM: TGI (CCRF-CEM leukemia)
inactive: GI50 (A549 NSCLC) 6.1 µM | GI50 (CAKI-1 renal) 17.6 µM | GI50 (CCRF-CEM leukemia) 2.12 µM | GI50 (HS 578T breast) 1.23 µM | GI50 (HT29 colon) 4.28 µM | GI50 (SF-268 CNS) 4.38 µM | GI50 (SK-MEL-28 melanoma) 9.26 µM | GI50 (UACC-62 melanoma) 3.3 µM
20 µM: TGI (UACC-62 melanoma)
> 100 µM: TGI (A549 NSCLC) | TGI (HT29 colon) | TGI (SF-268 CNS) | TGI (SK-MEL-28 melanoma)
4.79 µM: TGI (HS 578T breast)

O=C(OCc1ccc2ccccc2n1)c1cn(C2CC2)c2cc(N3CCN(Cc4ccc5ccccc5n4)CC3)c(F)cc2c1=O
> 100 µM: TGI (A549 NSCLC) | TGI (CAKI-1 renal) | TGI (CCRF-CEM leukemia) | TGI (HS 578T breast) | TGI (HT29 colon) | TGI (SF-268 CNS) | TGI (SK-MEL-28 melanoma) | TGI (UACC-62 melanoma)
inactive: GI50 (A549 NSCLC) 98.2 µM | GI50 (CAKI-1 renal) 55.7 µM | GI50 (CCRF-CEM leukemia) > 100 µM | GI50 (HS 578T breast) 40.6 µM | GI50 (HT29 colon) 58.2 µM | GI50 (SF-268 CNS) > 62.5 µM | GI50 (SK-MEL-28 melanoma) 35.4 µM | GI50 (UACC-62 melanoma) 46.1 µM

CO/N=C(\COc1ccc2c(c1)[nH]c1ccccc12)c1ccc(F)cc1
inactive: GI50 (A549 NSCLC) 29.6 µM | GI50 (CAKI-1 renal) > 100 µM | GI50 (CCRF-CEM leukemia) 22.6 µM | GI50 (HS 578T breast) 23.4 µM | GI50 (HT29 colon) > 100 µM | GI50 (SF-268 CNS) > 100 µM | GI50 (SK-MEL-28 melanoma) > 100 µM | GI50 (UACC-62 melanoma) 95.9 µM
> 100 µM: TGI (A549 NSCLC) | TGI (CAKI-1 renal) | TGI (HS 578T breast) | TGI (HT29 colon) | TGI (SF-268 CNS) | TGI (SK-MEL-28 melanoma) | TGI (UACC-62 melanoma)
53.9 µM: TGI (CCRF-CEM leukemia)

CCCN(CCS(C)(=O)=O)Cc1ccc(-c2ccc3ncnc(Nc4ccc(OCc5cccc(F)c5)c(Cl)c4)c3c2)o1
inactive: GI50 (A549 NSCLC) > 25 µM | GI50 (CAKI-1 renal) 0.997 µM | GI50 (CCRF-CEM leukemia) 7.39 µM | GI50 (HS 578T breast) > 25 µM | GI50 (HT29 colon) > 25 µM | GI50 (SF-268 CNS) > 25 µM | GI50 (SK-MEL-28 melanoma) > 25 µM | GI50 (UACC-62 melanoma) > 25 µM
> 25 µM: TGI (A549 NSCLC) | TGI (CAKI-1 renal) | TGI (CCRF-CEM leukemia) | TGI (HS 578T breast) | TGI (HT29 colon) | TGI (SF-268 CNS) | TGI (SK-MEL-28 melanoma) | TGI (UACC-62 melanoma)

CCOc1ccccc1C(=O)N1CCN(c2cc(Cl)cc(Cl)c2)CC1
15.8 µM: TGI (A549 NSCLC)
18.7 µM: TGI (SF-268 CNS)
16.4 µM: TGI (HS 578T breast)
16 µM: TGI (UACC-62 melanoma)
2.29 µM: TGI (HT29 colon)
22.2 µM: TGI (SK-MEL-28 melanoma)
inactive: GI50 (SK-MEL-28 melanoma) 3.55 µM
33.5 µM: TGI (CCRF-CEM leukemia)
12.5 µM: TGI (CAKI-1 renal)
active: GI50 (A549 NSCLC) 0.0429 µM | GI50 (CAKI-1 renal) 0.0257 µM | GI50 (CCRF-CEM leukemia) 0.0357 µM | GI50 (HS 578T breast) 0.0327 µM | GI50 (HT29 colon) 0.0316 µM | GI50 (SF-268 CNS) 0.112 µM | GI50 (UACC-62 melanoma) 0.0203 µM

O=C1c2c(c3c4ccccc4[nH]c3c3ccc4ccccc4c23)C(=O)N1CCN1CCNCC1
3.27 µM: TGI (HT29 colon)
4.03 µM: TGI (SF-268 CNS)
3.1 µM: TGI (SK-MEL-28 melanoma)
inactive: GI50 (A549 NSCLC) 1.16 µM | GI50 (CAKI-1 renal) 1.37 µM | GI50 (CCRF-CEM leukemia) 1.33 µM | GI50 (HT29 colon) 1.72 µM | GI50 (SF-268 CNS) 1.86 µM | GI50 (SK-MEL-28 melanoma) 1.68 µM | GI50 (UACC-62 melanoma) 1.86 µM
4.22 µM: TGI (CCRF-CEM leukemia)
3.77 µM: TGI (UACC-62 melanoma)
2.69 µM: TGI (CAKI-1 renal)
2.64 µM: TGI (A549 NSCLC)

O=C1/C(=C/c2ccccc2[N+](=O)[O-])Cc2ccccc21
inactive: GI50 (A549 NSCLC) 2.5 µM | GI50 (CAKI-1 renal) 3.13 µM | GI50 (HS 578T breast) 3.7 µM | GI50 (HT29 colon) 0.931 µM | GI50 (SF-268 CNS) 3.1 µM | GI50 (SK-MEL-28 melanoma) 2.1 µM | GI50 (UACC-62 melanoma) 1.64 µM
11 µM: TGI (A549 NSCLC)
29.6 µM: TGI (SF-268 CNS)
3.38 µM: TGI (UACC-62 melanoma)
> 100 µM: TGI (CAKI-1 renal) | TGI (HS 578T breast)
3.15 µM: TGI (HT29 colon)
4.2 µM: TGI (SK-MEL-28 melanoma)

NC(CSC1c2ccccc2-c2ccccc21)C(=O)O (configuration not stated)
> 100 µM: TGI (A549 NSCLC) | TGI (CAKI-1 renal) | TGI (CCRF-CEM leukemia) | TGI (HS 578T breast) | TGI (HT29 colon) | TGI (SK-MEL-28 melanoma) | TGI (UACC-62 melanoma)

CC(=O)OC12C=C(C)C(C(C)C1)C1C(=O)N(CCN3CCOCC3)C(=O)C12 (configuration not stated)
inactive: GI50 (A549 NSCLC) > 100 µM | GI50 (CAKI-1 renal) > 100 µM | GI50 (CCRF-CEM leukemia) > 100 µM | GI50 (HS 578T breast) > 100 µM | GI50 (HT29 colon) > 100 µM | GI50 (SF-268 CNS) > 100 µM | GI50 (UACC-62 melanoma) > 100 µM
> 100 µM: TGI (A549 NSCLC) | TGI (CAKI-1 renal) | TGI (CCRF-CEM leukemia) | TGI (HS 578T breast) | TGI (HT29 colon) | TGI (SF-268 CNS) | TGI (UACC-62 melanoma)

O=C(/C=C\c1cccc([N+](=O)[O-])c1)/C=C/c1cccc([N+](=O)[O-])c1
9.89 µM: TGI (SF-268 CNS)
3.32 µM: TGI (HT29 colon)
inactive: GI50 (A549 NSCLC) 3.21 µM | GI50 (CAKI-1 renal) 4.4 µM | GI50 (HT29 colon) 1.4 µM | GI50 (SF-268 CNS) 3.08 µM | GI50 (SK-MEL-28 melanoma) > 100 µM | GI50 (UACC-62 melanoma) 14.8 µM
> 100 µM: TGI (CAKI-1 renal) | TGI (SK-MEL-28 melanoma) | TGI (UACC-62 melanoma)
12.2 µM: TGI (A549 NSCLC)

CCOC(=O)C1=C(C)N(c2ccc(Cl)cc2)[C@]2(C#N)C(O)=C(Cl)C(Cl)=C(O)[C@]12C#N
inactive: GI50 (A549 NSCLC) > 100 µM | GI50 (CAKI-1 renal) 38 µM | GI50 (CCRF-CEM leukemia) 25.6 µM | GI50 (HS 578T breast) > 100 µM | GI50 (HT29 colon) 51.9 µM | GI50 (SF-268 CNS) > 100 µM | GI50 (SK-MEL-28 melanoma) > 100 µM
75.9 µM: TGI (CCRF-CEM leukemia)
> 100 µM: TGI (A549 NSCLC) | TGI (CAKI-1 renal) | TGI (HS 578T breast) | TGI (HT29 colon) | TGI (SF-268 CNS) | TGI (SK-MEL-28 melanoma)

NNC(=O)CS(=O)(=O)Nc1ncccn1
> 100 µM: TGI (A549 NSCLC) | TGI (CAKI-1 renal) | TGI (HS 578T breast) | TGI (HT29 colon) | TGI (SF-268 CNS) | TGI (SK-MEL-28 melanoma) | TGI (UACC-62 melanoma)

COc1cc(N2C(=O)[C@H](O)C2c2ccc(SC)cc2)cc(OC)c1OC (some centres not stated)
0.0887 µM: TGI (HT29 colon)
59.3 µM: TGI (SF-268 CNS)
> 100 µM: TGI (A549 NSCLC) | TGI (CAKI-1 renal) | TGI (CCRF-CEM leukemia) | TGI (HS 578T breast) | TGI (UACC-62 melanoma)
active: GI50 (A549 NSCLC) 0.0131 µM | GI50 (CAKI-1 renal) < 0.01 µM | GI50 (CCRF-CEM leukemia) < 0.01 µM | GI50 (HS 578T breast) < 0.01 µM | GI50 (HT29 colon) < 0.01 µM | GI50 (SF-268 CNS) < 0.01 µM | GI50 (UACC-62 melanoma) < 0.01 µM
